According to US4727061A, “Pharmaceutical preparations having diuretic activity” (Rohm GmbH, priority 1984, dated 1988):

Test system: female Sprague-Dawley rats
Assay: Natriuretic activity in anesthetized, catheterized rats under i.v. saline/fructose infusion (method of Kramer et al.)
Type: in vivo
Details: 250 micrograms of peptide per rat
From the text: In the test protocol employed, female Sprague-Dawley rats weighing from 206 to 250 g were used as test animals. Before the test, the rats were exposed to a normal diet and had free access to food and water. On the day of the test, the rats were anesthetized with methohexital and catheters were inserted in the aorta and the jugular vein and from there through the abdomen in the bladder.
The animals were then placed into individual cages mounted on a scale. A 0.45% saline solution with 2.5% fructose was then administered to them intravenously at a rate ranging from 33 to 62 microliters per minute so that the body weight remained constant. Two hours after the animals had recovered, 15 minute urine collection periods were initiated and continued throughout the test. The diuretic material to be tested was dissolved (at pH 7.4) in the infusion solution, which contained tris HCl as a buffer. In the case of the fractions characterized by natriuresis, 15 minute urine samples were collected until the sodium excretion had again reached the base line, and the rate of infusion was adjusted so that the body weight remained constant. The arterial blood pressure was monitored throughout the test by means of a pressure measuring apparatus (Statham P-23-Db). The sodium and potassium concentrations in serum and urine were monitored by flame photometry.
250 micrograms of the peptide substance to be tested were administered to each rat.
(2) Sodium excretion in treated rats in micromoles per minute per milligram of administered substance of formula I.
(3) Time of maximum activity (tmax) in minutes.
(4) Increase in natriuresis as quotient F=(Na^+ excretion after treatment)/(Na^+ excretion before treatment).

**Q.** What does the source list for Gly-Gly?
**A.** (3) Time of maximum activity (tmax): 1.5 to 2.5 h; (4) Increase in natriuresis as quotient F = (Na+ excretion after treatment)/(Na+ excretion before treatment): 39.8; (2) Na+ excretion in treated rats (treated rats, in the i.v. infusion solution, pH 7.4, 15 minute urine collections): 14.7 micromoles per minute per mill; (2) Q = K+/Na+ in treated rats (treated rats, urinary K+/Na+ quotient): 0.63
